Results: patent publication US6774143B1, “Method for treating cells resistant to antineoplastic agents” (Novartis AG, priority 2003, dated 2004)

Assays:
[1] = system: MIP 101 human colon tumor xenograft; assay: Subcutaneous MIP 101 colon tumor model in athymic nude mice; assay type: in vivo; settings: for fate of the animals: all animals
Excerpt: (§1) All cell lines that are used in animal studies are free of Mycoplasma contamination (Rapid Detection System by Gen-Probe, Inc., San Diego, Calif.) and viral contamination (MAP testing by MA BioServices, Inc., Rockville, Md.). The HCT-15 human colon tumor cell line is purchased from the American Type Culture Collection, Rockville, Md., Accession Number ATCC CCL 225. The MIP 101 human colon tumor cell line is obtained from Dr. R. Kramer (Bristol Meyers Squibb) and was previously described (Niles R M, et al. Cancer Invest. 1987;5(6):545-52). These cells are Pgp-1 (human Pgp) overexpressors, making the cells resistant to paclitaxel. All cell lines are propagated and expanded in RPMI 1640 medium containing 10% heat-inactivated FBS (Life Technologies, Grand Island, N.Y.). Cell expansions for implantation are performed in T225 tissue culture flasks. Cells are harvested at 70-90% confluency, washed once with HBSS containing 10% FBS, and are suspended in plain HBSS.
(§2) Outbred athymic (nu/nu) female mice (“Hsd:Athymic Nude-nu” from Harlan Sprague Dawley, Indianapolis, Ind.) are anesthetized with Metofane (Mallinckrodt Veterinary, Inc., Mundelein, Ill.,). A cell suspension (100 μL) containing 1×10^6 cells is then injected sc into the right axillary (lateral) region of each animal. Tumors are allowed to grow until a volume of approximately 100 mm^3 was achieved. At this point, mice bearing tumors are sorted into groups of eight for the study. The sorting process produced groups balanced with respect to mean and range of tumor size.
(§3) Discodermolide is isolated from the sponge Discodermia dissoluta using the methods of (Gunasekera S P, et al. supra). Multiple batches of compound of similar purity (all>95% pure, as determined by mass spectrometry, and nuclear magnetic resonance analysis) are used throughout the various studies. Solid discodermolide is dissolved in pure ethanol to create a stock solution which is diluted just before dosing with Cremophor EL (Crm) and D5W to a final concentration of 16.7% Cremophor EL, 8.3% ethanol and 75% D5W. The compound is administered intravenously (iv). In the first study discodermolide is tested against both tumors at five different dosing schedules: (i.) 30 mg/kg dosed as two 15 mg/kg injections on day 1 of the experiment, (ii.) 30 mg/kg dosed as three 10 mg/kg injections on days 1, 2, and 3, (iii.) 15 mg/kg dosed as a single injection on day 1, (iv.) 20 mg/kg dosed as a 15 mg/kg injection on day 1, followed by a 5 mg/kg injection on day 11, and (v.) 10 mg/kg dosed as a 7.5 mg/kg injection on day 1 followed by a 2.5 mg/kg injection on day 11. In the second study discodermolide is dosed as one injection on the first day of the experiment, at 2.5 mg/kg, 5 mg/kg, 7.5 mg/kg, 10 mg/kg, 12.5 mg/kg, or 15 mg/kg. In addition the 7.5 mg/kg injection on day 1 followed by a 2.5 mg/kg injection on day 11 is repeated from the first study. The actual doses, regimens and routes of administration used for the specific models are discussed in each section separately. Positive control animals receive clinical formulations of paclitaxel (TAXOL) diluted 4-fold with D5W and administered iv once daily for five consecutive days. Vehicle control for paclitaxel is administered according to paclitaxel's schedule. In the first study vehicle controls for discodermolide (16.7% Cremophor EL, 8.3% ethanol and 75% D5W) are administered as three daily injections on days 1, 2, and 3, or as two injections on days 1, and 11. In the second study vehicle control for discodermolide is administered as a single injection on day 1.
(§4) Tumors are measured, and individual animal body weights are recorded once weekly. Standard experiments are conducted for 3 full weeks from the initial dosing.
(§5) Antitumor activity is expressed as % T/C (comparing Δ tumor volumes for treatment group to vehicle control group). […]

[2] = system: HCT-15 human colon tumor xenograft; assay: Subcutaneous HCT-15 colon tumor model in athymic nude mice; assay type: in vivo; settings: for body weight losses, highest reached: 2.5-15 mg/kg
Excerpt: as §1, §2, §3, §4, §5

Raf-1 = assay: Western blot, Raf-1 phosphorylation; assay type: cell-based, human
Procedure: Cells are plated at a density of 1.5×10^6 cells per 100 mm plate. The next day cells are treated with vehicle control (0.1% DMSO) or test compound for 24 h. Cells are harvested by washing monolayers twice with PBS, then lysing with 300 ul of lysis buffer[20 mM Tris (pH 8.0), […], 100 mM NaCl, 0.5% NP40, 0.0125% DOC, 2.5% glycerol, 1 mM vanadate, 25 mM sodium fluoride and protease inhibitor cocktail (1:500 dilution, Sigma)]. Lysates were spun at 12,000× g and the supernatant transferred to a new tube. Protein concentration of the lysates is determined using BCA protein assay Reagent (Pierce). Samples (75 μg) are resolved by SDS-PAGE on a 7.5% or 14% tris-glycine gel for Raf-1 and Bcl-xL, respectively, and transferred to nitrocellulose. Immunodetection is performed as described by Amersham Vistra Fluorescence Western blotting Kit directions with the following modifications: the membrane is blocked with 5% milk (Carnation Non-Fat Dry Milk) in buffer containing 20 mM Tris-HCl (pH=7.4), 100 mM NaCl, and 0.2% Tween 20 (TBST) overnight and is subsequently incubated for 2 h with primary antibody (Santa Cruz C-12 for Raf-1 and Santa Cruz H-62 for Bcl-xL), followed by fluorescein-linked anti-rabbit Ig in 5% milk and anti-fluorescein alkaline phosphatase conjugate in TBST at 1:500 and 1:2000 dilutions, respectively. A Storm 860 (Molecular Dynamics) is used to detect fluorescent product according to the manufacturer's instructions.

[3] = first study, paclitaxel 15 mg/kg daily for the first 5 days
[4] = MDA-MB-435 cells, 24 hour treatment
[5] = first study, 7.5 mg/kg day 1 + 2.5 mg/kg day 11
[6] = first study, 15 mg/kg day 1 + 5 mg/kg day 11
[7] = first study, discodermolide iv single 15 mg/kg injection on day 1
[8] = first study, two 15 mg/kg injections on day 1 (30 mg/kg total)
[9] = second study, 7.5 mg/kg day 1 + 2.5 mg/kg day 11
[10] = second study, single injection 2.5 mg/kg day 1
[11] = second study, single injection 5 mg/kg
[12] = second study, single injection 5 mg/kg day 1
[13] = second study, single injection 7.5 mg/kg
[14] = second study, single injection 7.5 mg/kg day 1
[15] = second study, single injection 10 mg/kg
[16] = second study, single injection 10 mg/kg day 1
[17] = second study, single injection 12.5 mg/kg
[18] = second study, single injection 12.5 mg/kg day 1
[19] = second study, single injection 15 mg/kg
[20] = second study, single injection 15 mg/kg day 1

## CC(=O)O[C@H]1C(=O)[C@@]2(C)[C@H]([C@H](OC(=O)c3ccccc3)[C@]3(O)C[C@H](OC(=O)[C@H](O)[C@@H](NC(=O)c4ccccc4)c4ccccc4)C(C)=C1C3(C)C)[C@]1(OC(C)=O)CO[C@@H]1C[C@@H]2O [paclitaxel, reference compound]
[1]; [3]
  T/C: 82%
[1]; second study, paclitaxel iv once daily for five days, p<0.01
  T/C: 54%
[2]; [3]
  T/C: 95%
[2]; second study, paclitaxel iv once daily for five days
  T/C: 94%
[2]; third study, paclitaxel iv once daily for five days
  T/C: 81%
Raf-1; 1A9 parental cells
  Raf-1 phosphorylation: phosphorylated
Raf-1; A549 cells, 24 hour treatment
  Raf-1 phosphorylation: phosphorylated
Raf-1; [4]
  Raf-1 phosphorylation: phosphorylated
Raf-1; PTX-22 cells
  Raf-1 phosphorylation: not observed

## C=C/C=C\[C@H](C)[C@H](OC(N)=O)[C@@H](C)[C@H](O)[C@@H](C)C/C(C)=C\[C@H](C)[C@@H](O)[C@@H](C)/C=C\[C@@H](O)C[C@@H]1OC(=O)[C@H](C)[C@@H](O)[C@H]1C [discodermolide, (+)-Discodermolide]
[1]; MIP 101 xenograft, athymic nude mice
  inhibition of tumor growth (in words): statistically significant (p<0.01) and reproducible inhibition of tumor growth
[1]; [5]
  T/C: 38%
  body weight loss: 21.3%
[1]; [6]
  fate of the animals: sacrificed in the beginning of the third week of the experiment due to the excessive body weight loss
[1]; first study, 30 mg/kg as three 10 mg/kg injections on days 1, 2, 3
  fate of the animals: die on day 5 of the experiment
[1]; [7]
  T/C: 36%
  body weight loss: 18.9%
[1]; [8]
  T/C: 24%
  body weight loss: 23.4%
[1]; [9]
  T/C: 35%
  body weight loss: 11.4%
  deaths: One animal in that group dies from apparent drug toxicity
[1]; second study, single injection 2.5 mg/kg
  body weight loss: 7.9%
[1]; [10]
  T/C: 59%
[1]; [11]
  body weight loss: 10.2%
[1]; [12]
  T/C: 57%
[1]; [13]
  body weight loss: 13.2%
[1]; [14]
  T/C: 46%
[1]; [15]
  body weight loss: 18.7%
[1]; [16]
  T/C: 37%
[1]; [17]
  body weight loss: 15.5%
[1]; [18]
  T/C: 22%
[1]; [19]
  body weight loss: 11.7%
[1]; [20]
  T/C: 18%
[2]; HCT-15 xenograft, athymic nude mice
  inhibition of tumor growth (in words): statistically significant (p<0.01) and reproducible inhibition of tumor growth
[2]; [5]
  T/C: 31%
  body weight loss: 17.3%
[2]; [6]
  fate of the remaining four animals: sacrificed due to the excessive body weight loss
[2]; first study, 15 mg/kg day 1 + 5 mg/kg day 11, group of eight
  animals that die in the second week: Four animals
[2]; first study, 30 mg/kg as three 10 mg/kg injections on days 1, 2, 3, all animals
  fate of the animals: sacrificed in the beginning of the third week of the experiment due to excessive body weight loss
[2]; [7]
  T/C: 43%
  body weight loss: 18.9%
[2]; [8]
  T/C: 22%
  body weight loss: 24.6%
[2]; original dose response study (second)
  body weight losses, highest reached: 13%
[2]; repeat of the dose response study (third experiment)
  body weight losses, highest reached: 23%
[2]; [9]
  T/C: 29%
  body weight loss: 11.4%
[2]; [10]
  T/C: 62%
[2]; second study, single injection 2.5 mg/kg, gain
  body weight change: 3.5%
[2]; [11]
  body weight change: −1.9%
[2]; [12]
  T/C: 44%
[2]; [13]
  body weight change: −7.9%
[2]; [14]
  T/C: 43%
[2]; [15]
  body weight change: −8.5%
[2]; [16]
  T/C: 40%
[2]; [17]
  body weight change: −12.9%
[2]; [18]
  T/C: 28%
[2]; [19]
  body weight change: −11.0%
[2]; [20]
  T/C: 27%
[2]; third study, single injection 2.5 mg/kg day 1
  T/C: 54%
[2]; third study, single injection 2.5 mg/kg, gain
  body weight change: 1.7%
[2]; third study, single injection 5 mg/kg
  body weight change: −8.9%
[2]; third study, single injection 5 mg/kg day 1
  T/C: 43%
[2]; third study, single injection 7.5 mg/kg
  body weight change: −23.3%
[2]; third study, single injection 7.5 mg/kg day 1
  T/C: 23%
[2]; third study, single injection 10 mg/kg
  body weight change: −17.6%
[2]; third study, single injection 10 mg/kg day 1
  T/C: 27%
[2]; third study, single injection 12.5 mg/kg
  body weight change: −20.1%
[2]; third study, single injection 12.5 mg/kg day 1
  T/C: 25%
[2]; third study, single injection 15 mg/kg
  body weight change: −13.4%
[2]; third study, single injection 15 mg/kg day 1
  T/C: 19%
Raf-1; 1A9 parental cells
  Raf-1 phosphorylation: phosphorylated
Raf-1; A549 cells, 24 hour treatment
  Raf-1 phosphorylation: phosphorylated
Raf-1; [4]
  Raf-1 phosphorylation: phosphorylated
Raf-1; PTX-22 cells
  Raf-1 phosphorylation: phosphorylated
